Assay results published in ChEMBL document CHEMBL5303573, “Mapping human microbiome drug metabolism by gut bacteria and their genes” (Nature, 2019).

Columns and labels:
[1] = The drug is tested on Enterobacter cancerogenus strain: ATCC35316 for biotransformation. The drug concentrations were measured before and after a 12-h incubation by liquid-chromatography-coupled mass spectrometry (LC–MS); details: 2 µM
[2] = The drug is tested on Anaerotruncus colihominis strain: DSM17241 for biotransformation. The drug concentrations were measured before and after a 12-h incubation by liquid-chromatography-coupled mass spectrometry (LC–MS); details: 2 µM
[3] = bacteroides stercoris, 12 h, 2 µM
Description: The drug is tested on Bacteroides stercoris strain: ATCC43183 for biotransformation. The drug concentrations were measured before and after a 12-h incubation by liquid-chromatography-coupled mass spectrometry (LC–MS)

[4] = The drug is tested on Bacteroides sp. WH2 strain: WH2 for biotransformation. The drug concentrations were measured before and after a 12-h incubation by liquid-chromatography-coupled mass spectrometry (LC–MS); details: bacteroides sp. wh2, 12 h, 2 µM
[5] = bacteroides intestinalis, 12 h, 2 µM
Description: The drug is tested on Bacteroides intestinalis strain: DSM17393 for biotransformation. The drug concentrations were measured before and after a 12-h incubation by liquid-chromatography-coupled mass spectrometry (LC–MS)

[6] = limosilactobacillus reuteri cf48-3a, 12 h, 2 µM
Description: The drug is tested on Lactobacillus reuteri CF48-3A strain: BEI HM-102 for biotransformation. The drug concentrations were measured before and after a 12-h incubation by liquid-chromatography-coupled mass spectrometry (LC–MS)

[7] = bacteroides thetaiotaomicron, 12 h, 2 µM
Description: The drug is tested on Bacteroides thetaiotaomicron strain: 3731 for biotransformation. The drug concentrations were measured before and after a 12-h incubation by liquid-chromatography-coupled mass spectrometry (LC–MS)

[8] = The drug is tested on Bacteroides finegoldii strain: DSM17565 for biotransformation. The drug concentrations were measured before and after a 12-h incubation by liquid-chromatography-coupled mass spectrometry (LC–MS); details: 2 µM
[9] = The drug is tested on Bacteroides coprophilus strain: DSM18228 for biotransformation. The drug concentrations were measured before and after a 12-h incubation by liquid-chromatography-coupled mass spectrometry (LC–MS); details: 2 µM
[10] = The drug is tested on Edwardsiella tarda strain: ATCC23685 for biotransformation. The drug concentrations were measured before and after a 12-h incubation by liquid-chromatography-coupled mass spectrometry (LC–MS); details: 2 µM
[11] = The drug is tested on Alistipes indistinctus strain: DSM22520 for biotransformation. The drug concentrations were measured before and after a 12-h incubation by liquid-chromatography-coupled mass spectrometry (LC–MS); details: 2 µM
[12] = The drug is tested on Enterococcus faecalis strain: V583 for biotransformation. The drug concentrations were measured before and after a 12-h incubation by liquid-chromatography-coupled mass spectrometry (LC–MS); details: 2 µM
[13] = The drug is tested on Collinsella intestinalis strain: DSM13280 for biotransformation. The drug concentrations were measured before and after a 12-h incubation by liquid-chromatography-coupled mass spectrometry (LC–MS); details: 2 µM
[14] = The drug is tested on Bacteroides caccae strain: ATCC43185 for biotransformation. The drug concentrations were measured before and after a 12-h incubation by liquid-chromatography-coupled mass spectrometry (LC–MS); details: 2 µM
[15] = The drug is tested on Eubacterium rectale strain: ATCC33656 for biotransformation. The drug concentrations were measured before and after a 12-h incubation by liquid-chromatography-coupled mass spectrometry (LC–MS); details: agathobacter rectalis, 2 µM
[16] = bacteroides thetaiotaomicron, 12 h, 2 µM; remark: listed apart in the source
Description: The drug is tested on Bacteroides thetaiotaomicron strain: 7330 for biotransformation. The drug concentrations were measured before and after a 12-h incubation by liquid-chromatography-coupled mass spectrometry (LC–MS)

[17] = bacteroides fragilis, 12 h, 2 µM
Description: The drug is tested on Bacteroides fragilis strain: DS-208 for biotransformation. The drug concentrations were measured before and after a 12-h incubation by liquid-chromatography-coupled mass spectrometry (LC–MS)

[18] = bacteroides fragilis, 12 h, 2 µM; remark: listed apart in the source
Description: The drug is tested on Bacteroides fragilis strain: 3397 (T10) for biotransformation. The drug concentrations were measured before and after a 12-h incubation by liquid-chromatography-coupled mass spectrometry (LC–MS)

[19] = The drug is tested on Blautia luti strain: DSM14534 for biotransformation. The drug concentrations were measured before and after a 12-h incubation by liquid-chromatography-coupled mass spectrometry (LC–MS); type: ADME; design: dose 2 uM, timepoint 0 vs 12 hours; details: 2 µM
[20] = The drug is tested on Clostridium asparagiforme strain: DSM15981 for biotransformation. The drug concentrations were measured before and after a 12-h incubation by liquid-chromatography-coupled mass spectrometry (LC–MS); type: ADME; design: dose 2 uM, timepoint 0 vs 12 hours; details: enterocloster asparagiformis, 2 µM

Structure (SMILES) | Bacterial Biotransformation [1] | Bacterial Biotransformation [2] | Bacterial Biotransformation [3] | Bacterial Biotransformation [4] | Bacterial Biotransformation [5] | Bacterial Biotransformation [6] | Bacterial Biotransformation [7] | Bacterial Biotransformation [8] | Bacterial Biotransformation [9] | Bacterial Biotransformation [10] | Bacterial Biotransformation [11] | Bacterial Biotransformation [12] | Bacterial Biotransformation [13] | Bacterial Biotransformation [14] | Bacterial Biotransformation [15] | Bacterial Biotransformation [16] | Bacterial Biotransformation [17] | Bacterial Biotransformation [18] | Bacterial Biotransformation [19] | Bacterial Biotransformation [20]
CCCCC(=O)N(Cc1ccc(-c2ccccc2-c2nnn[nH]2)cc1)[C@H](C(=O)O)C(C)C | Compound NOT metabolized | Compound NOT metabolized | Compound NOT metabolized | Compound NOT metabolized | Compound metabolized | Compound NOT metabolized | Compound metabolized | Compound metabolized | Compound NOT metabolized | Compound NOT metabolized | Compound NOT metabolized | Compound NOT metabolized | Compound NOT metabolized | Compound NOT metabolized | Compound NOT metabolized | Compound metabolized | Compound metabolized | Compound NOT metabolized |  | 
Cc1cc(C)cc(OCC2CNC(=O)O2)c1 (centres undefined) [METAXALONE] |  | Compound NOT metabolized |  | Compound NOT metabolized | Compound NOT metabolized | Compound NOT metabolized | Compound NOT metabolized |  |  |  |  | Compound NOT metabolized | Compound NOT metabolized | Compound NOT metabolized | Compound NOT metabolized |  |  |  | Compound NOT metabolized | 
CN(C)C(=O)C(CCN1CCC(O)(c2ccc(Cl)cc2)CC1)(c1ccccc1)c1ccccc1 [LOPERAMIDE] |  | Compound NOT metabolized | Compound metabolized | Compound NOT metabolized |  | Compound NOT metabolized | Compound NOT metabolized |  | Compound metabolized | Compound NOT metabolized | Compound metabolized | Compound NOT metabolized |  | Compound NOT metabolized | Compound NOT metabolized |  |  | Compound metabolized | Compound NOT metabolized | Compound NOT metabolized
C=C[C@H]1CN2CC[C@H]1C[C@H]2[C@H](O)c1ccnc2ccc(OC)cc12.C=C[C@H]1CN2CC[C@H]1C[C@H]2[C@H](O)c1ccnc2ccc(OC)cc12.O.O.O=S(=O)(O)O [QUININE SULFATE] |  | Compound NOT metabolized | Compound NOT metabolized | Compound NOT metabolized | Compound NOT metabolized | Compound NOT metabolized |  | Compound NOT metabolized | Compound NOT metabolized | Compound NOT metabolized |  | Compound NOT metabolized | Compound NOT metabolized | Compound NOT metabolized | Compound NOT metabolized | Compound NOT metabolized |  |  | Compound NOT metabolized | 
CCC(=O)NCC[C@@H]1CCc2ccc3c(c21)CCO3 [RAMELTEON] |  | Compound NOT metabolized | Compound metabolized | Compound NOT metabolized |  | Compound NOT metabolized | Compound metabolized | Compound NOT metabolized | Compound NOT metabolized | Compound NOT metabolized | Compound NOT metabolized | Compound NOT metabolized | Compound NOT metabolized |  |  |  | Compound metabolized |  | Compound NOT metabolized | 
Cc1ccc(/C(=C\CN2CCCC2)c2ccccn2)cc1 [TRIPROLIDINE] |  | Compound NOT metabolized | Compound NOT metabolized | Compound NOT metabolized | Compound NOT metabolized | Compound NOT metabolized | Compound NOT metabolized | Compound NOT metabolized | Compound NOT metabolized | Compound NOT metabolized | Compound NOT metabolized | Compound NOT metabolized | Compound NOT metabolized | Compound NOT metabolized |  | Compound NOT metabolized | Compound NOT metabolized | Compound NOT metabolized | Compound NOT metabolized | 
COc1ccc(/C=C/C(=O)Nc2ccccc2C(=O)O)cc1OC | Compound NOT metabolized | Compound NOT metabolized | Compound NOT metabolized | Compound metabolized | Compound NOT metabolized | Compound NOT metabolized | Compound NOT metabolized | Compound metabolized | Compound NOT metabolized | Compound NOT metabolized |  | Compound NOT metabolized | Compound NOT metabolized |  | Compound NOT metabolized |  | Compound NOT metabolized | Compound NOT metabolized | Compound NOT metabolized | 
O=C(O[C@H]1C[C@H]2CC[C@@H](C1)[N+]21CCCC1)C(O)(c1ccccc1)c1ccccc1.[Cl-] [TROSPIUM CHLORIDE] | Compound NOT metabolized | Compound NOT metabolized | Compound NOT metabolized | Compound NOT metabolized | Compound NOT metabolized | Compound NOT metabolized | Compound NOT metabolized | Compound NOT metabolized |  | Compound NOT metabolized |  | Compound NOT metabolized | Compound NOT metabolized | Compound NOT metabolized | Compound NOT metabolized | Compound NOT metabolized | Compound NOT metabolized | Compound NOT metabolized | Compound NOT metabolized | 
CCN(CC)CCNC(=O)c1cc(S(C)(=O)=O)ccc1OC [TIAPRIDE] | Compound NOT metabolized | Compound NOT metabolized |  | Compound NOT metabolized | Compound NOT metabolized | Compound NOT metabolized | Compound NOT metabolized | Compound NOT metabolized |  | Compound NOT metabolized | Compound NOT metabolized | Compound NOT metabolized | Compound NOT metabolized | Compound NOT metabolized | Compound NOT metabolized | Compound NOT metabolized |  |  | Compound NOT metabolized | 
COC(=O)C(c1ccccc1)C1CCCCN1 (centres undefined) [METHYLPHENIDATE] | Compound NOT metabolized | Compound NOT metabolized | Compound NOT metabolized | Compound NOT metabolized | Compound NOT metabolized |  | Compound NOT metabolized | Compound NOT metabolized |  | Compound NOT metabolized | Compound NOT metabolized | Compound NOT metabolized | Compound NOT metabolized | Compound NOT metabolized |  | Compound NOT metabolized | Compound NOT metabolized | Compound NOT metabolized |  | 
